Each structure is given as a SMILES string.

Usually IC50 stands for the concentration needed to halve the response being measured. Low readings indicate greater potency in that assay, high ones weaker potency in that assay.

Test [1] has as its target T1, HCV polymerase (NS5B) type 1b (Hepatitis C virus genotype 1b, UniProt P26663).
T1 construct: a region encoding NS5B (J Virol 1991 March, 65(3), 1105-13, 544 amino acids after deletion of 47 amino acids on the C-terminal); 6xHis (C); made in house; host or cells: Escherichia coli
The test can be described thus: Assay of enzyme (HCV polymerase) inhibitory activity, type 1b enzyme. Type of test: biochemical, HCV BK strain (type 1b). The conditions noted are these: HCV polymerase inhibitory activity IC50, 1b, type 1b enzyme. In short, it runs like this:
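Polymerase activity was followed as radiolabelled UTP incorporation by E. coli-expressed, His-tagged NS5B of HCV type 1b lacking its last 47 residues. Conditions: 2 μM UTP, 50 μM other NTPs, Mg2+ buffer at pH 7.5, 25 °C for 60 min. Inhibition relative to compound-free reactions gave IC50.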

Test [2] has as its target T2, HCV polymerase (NS5B) type 1a (Hepatitis C virus genotype 1a, UniProt P26664).
T2 construct: made in house; host or cells: Escherichia coli (by the 'similar method' of the 1b enzyme)
The test can be described thus: Assay of enzyme (HCV polymerase) inhibitory activity, type 1a enzyme. Type of test: biochemical, HCV type 1a (cloned from the blood of patients). The conditions noted are these: HCV polymerase inhibitory activity IC50, 1a, type 1a enzyme. The essentials: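 IC50 values derive from radioactivity of newly synthesized RNA with versus without test compound. The enzyme was C-terminally truncated type 1a NS5B, 1.5 μg/ml, run 60 min at 25° C with 3H-UTP-labelled nucleotides.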

As for `COc1ccc2nc(N3CCN(S(=O)(=O)c4ccc(OC(F)(F)F)cc4)[C@@H](C(=O)NCc4ccc(OC(F)(F)F)cc4)C3)sc2n1` [Example 1050, (R)-4-(5-methoxy-thiazolo[5,4-b]pyridin-2-yl)-1-(4-trifluoromethoxy-benzenesulfonyl)-piperazine-2-carboxylic acid 4-trifluoromethoxy-benzylamide], the IC50 in test [1] and in test [2] was 100 to 1000 nM in each case.

In the case of `Cc1ncc2sc(N3CCN(S(=O)(=O)c4ccc(OC(F)(F)C(F)F)cc4)[C@@H](C(=O)NCc4ccc(OC(F)(F)F)cc4)C3)nc2n1` [Example 1051, (R)-4-(5-methyl-thiazolo[4,5-d]pyrimidin-2-yl)-1-[4-(1,1,2,2-tetrafluoro-ethoxy)-benzenesulfonyl]-piperazine-2-carboxylic acid 4-trifluoromethoxy-benzylamide], the IC50 in test [1] and in test [2] was less than 100 nM each time.

`O=C(NCc1ccc(OC(F)(F)F)cc1)[C@H]1CN(c2nc3nc(CO)ncc3s2)CCN1S(=O)(=O)c1ccc(C(F)(F)F)cc1` [Example 1052, (R)-4-(5-hydroxymethyl-thiazolo[4,5-d]pyrimidin-2-yl)-1-(4-trifluoromethyl-benzenesulfonyl)-piperazine-2-carboxylic acid 4-trifluoromethoxy-benzylamide]: the half-maximal inhibitory concentration (IC50) in test [1] and in test [2] was less than 100 nM in each case.

For the compound `O=C(NCc1ccc(OC(F)F)cc1)[C@H]1CN(c2nn3ccc(=O)nc3s2)CCN1S(=O)(=O)c1ccc(OC(F)(F)F)cc1` [Example 1053, (R)-4-(7-oxo-7H-[1,3,4]thiadiazolo[3,2-a]pyrimidin-2-yl)-1-(4-trifluoromethoxy-benzenesulfonyl)-piperazine-2-carboxylic acid 4-difluoromethoxy-benzylamide], the IC50 in test [1] and in test [2] was less than 100 nM in each case.

For `CON(C)C(=O)c1ncc2sc(N3CCN(S(=O)(=O)c4ccc(OC(F)(F)F)cc4)[C@@H](C(=O)NCc4ccc(OC(F)(F)F)cc4)C3)nc2n1` [Example 1054, 2-[(R)-4-(4-trifluoromethoxy-benzenesulfonyl)-3-(4-trifluoromethoxy-benzylcarbamoyl)-piperazin-1-yl]-thiazolo[4,5-d]pyrimidine-5-carboxylic acid methoxy-methyl-amide], the IC50 in test [1] and in test [2] was less than 100 nM each time.

For the compound `COCc1nc(N)c2sc(N3CCN(S(=O)(=O)c4ccc(OC(F)(F)F)cc4)[C@@H](C(=O)NCc4ccc(OC(F)(F)F)cc4)C3)nc2n1` [Example 1055, (R)-4-(7-amino-5-methoxymethyl-thiazolo[4,5-d]pyrimidin-2-yl)-1-(4-trifluoromethoxy-benzenesulfonyl)-piperazine-2-carboxylic acid 4-trifluoromethoxy-benzylamide], the IC50 in test [1] and in test [2] was less than 100 nM each time.

As for `O=C(NCc1ccc(OC(F)(F)F)cc1)[C@H]1CN(c2nc3nc(CN4CCCC4)ncc3s2)CCN1S(=O)(=O)c1ccc(OC(F)(F)F)cc1` [Example 1056, (R)-4-(5-pyrrolidin-1-ylmethyl-thiazolo[4,5-d]pyrimidin-2-yl)-1-(4-trifluoromethoxy-benzenesulfonyl)-piperazine-2-carboxylic acid 4-trifluoromethoxy-benzylamide], the half-maximal inhibitory concentration (IC50) in test [1] and in test [2] was less than 100 nM each time.

Regarding `O=C(NCc1ccc(OC(F)F)cc1)[C@H]1CN(c2nn3ccc(=O)nc3s2)CCN1S(=O)(=O)c1ccc(C(F)(F)F)cc1` [Example 1057, (R)-4-(7-oxo-7H-[1,3,4]thiadiazolo[3,2-a]pyrimidin-2-yl)-1-(4-trifluoromethyl-benzenesulfonyl)-piperazine-2-carboxylic acid 4-difluoromethoxy-benzylamide], the half-maximal inhibitory concentration (IC50) in test [1] and in test [2] was less than 100 nM each time.

As for `O=C(NCc1ccc(OC(F)(F)F)cc1)[C@H]1CN(c2nn3ccc(=O)nc3s2)CCN1S(=O)(=O)c1ccc(OC(F)F)cc1` [Example 1058, (R)-1-(4-difluoromethoxy-benzenesulfonyl)-4-(7-oxo-7H-[1,3,4]thiadiazolo[3,2-a]pyrimidin-2-yl)-piperazine-2-carboxylic acid 4-trifluoromethoxy-benzylamide], the IC50 in test [1] and in test [2] was less than 100 nM throughout.

Regarding `O=C(NCc1ccc(OC(F)(F)F)cc1)[C@H]1CN(c2nn3ccc(=O)nc3s2)CCN1S(=O)(=O)c1ccc(C(F)(F)F)cc1` [Example 1059, (R)-4-(7-oxo-7H-[1,3,4]thiadiazolo[3,2-a]pyrimidin-2-yl)-1-(4-trifluoromethyl-benzenesulfonyl)-piperazine-2-carboxylic acid 4-trifluoromethoxy-benzylamide], the IC50 in test [1] and in test [2] was less than 100 nM in each case.

As for `CC(O)c1ncc2sc(N3CCN(S(=O)(=O)c4ccc(OC(F)(F)F)cc4)[C@@H](C(=O)NCc4ccc(OC(F)(F)F)cc4)C3)nc2n1` (stereo partly drawn) [Example 1060, (R)-4-[5-(1-hydroxy-ethyl)-thiazolo[4,5-d]pyrimidin-2-yl]-1-(4-trifluoromethoxy-benzenesulfonyl)-piperazine-2-carboxylic acid 4-trifluoromethoxy-benzylamide], the IC50 in test [1] and in test [2] was less than 100 nM throughout.

As to `O=C(NCc1ccc(OC(F)F)c(F)c1)[C@H]1CN(c2nc3nc(C(F)(F)F)ncc3s2)CCN1S(=O)(=O)c1ccc(OC(F)(F)F)cc1` [Example 1061, (R)-1-(4-trifluoromethoxy-benzenesulfonyl)-4-(5-trifluoromethyl-thiazolo[4,5-d]pyrimidin-2-yl)-piperazine-2-carboxylic acid 4-difluoromethoxy-3-fluoro-benzylamide], the IC50 in test [1] and in test [2] was less than 100 nM each time.

`O=C(NCc1ccc(OC(F)(F)F)cc1)[C@H]1CN(c2nc3ccc(=O)[nH]c3s2)CCN1S(=O)(=O)c1ccc(OC(F)(F)F)cc1` [Example 1062, (R)-4-(5-oxo-4,5-dihydro-thiazolo[5,4-b]pyridin-2-yl)-1-(4-trifluoromethoxy-benzenesulfonyl)-piperazine-2-carboxylic acid 4-trifluoromethoxy-benzylamide]: the IC50 in test [1] and in test [2] was less than 100 nM throughout.

On to `O=C(NCc1ccc(OC(F)F)cc1)[C@H]1CN(c2nn3ccc(=O)nc3s2)CCN1S(=O)(=O)c1ccc(OC(F)F)cc1` [Example 1063, (R)-1-(4-difluoromethoxy-benzenesulfonyl)-4-(7-oxo-7H-[1,3,4]thiadiazolo[3,2-a]pyrimidin-2-yl)-piperazine-2-carboxylic acid 4-difluoromethoxy-benzylamide], for which the IC50 in test [1] and in test [2] was less than 100 nM in each case.

Regarding `CCCc1ccc(CNC(=O)[C@H]2CN(c3nc4c(C(=O)OCC)cncc4s3)CCN2S(=O)(=O)c2ccc(CC)cc2)cc1` [Example 1064, 2-[(R)-4-(4-ethyl-benzenesulfonyl)-3-(4-propyl-benzylcarbamoyl)-piperazin-1-yl]-thiazolo[5,4-c]pyridine-7-carboxylic acid ethyl ester], the IC50 in test [1] and in test [2] was less than 100 nM each time.

With `CCCc1ccc(CNC(=O)[C@H]2CN(c3nc4c(C(=O)O)cncc4s3)CCN2S(=O)(=O)c2ccc(CC)cc2)cc1` [Example 1065, 2-[(R)-4-(4-ethyl-benzenesulfonyl)-3-(4-propyl-benzylcarbamoyl)-piperazin-1-yl]-thiazolo[5,4-c]pyridine-7-carboxylic acid], the IC50 in test [1] and in test [2] was less than 100 nM in each case.

Values taken from patent publication US8017612B2, “Piperazine compound and use thereof as a HCV polymerase inhibitor” (priority 2006, dated 2011).
